{"source": "patent US20240002520A1", "about": "“TREATMENT OF CASTLEMAN DISEASE” (THE TRUSTEES OF THE UNIVERSITY OF PENNSYLVANIA, priority 2020, published 2024)", "key": {"iMCD": {"test_system": "iMCD", "details": "literature case reports; cited from earlier work"}, "CXCL13 [1]": {"test_system": "CXCL13", "assay": "Serum CXCL13 levels (absolute quantification, RBM) in validation cohort, siltuximab phase I study", "format": "in vivo, human", "source_text": "Samples collected in real-world practice were included to better represent the full spectrum of iMCD. We obtained samples from 60 patients with diseases that overlap in clinical and pathological presentation with iMCD, including HHV8-associated MCD (N=20), HL (N=20), and RA (N=20), which are caused by viral, neoplastic, and autoimmune mechanisms, respectively, and 44 healthy individuals. […] All serum samples from the phase I and the phase II studies were collected and processed following respective standardized protocols.\nFor the 23 samples in the validation cohort, Rules Based Medicine (RBM) DiscoveryMap v1.0 was used to measure 190 serum analytes by a microsphere-based, multiplexed immunoassay platform.^18 RBM values were converted to standardized units and log 2 transformed. Of 190 proteins measured by RBM, 154 can be mapped to targets in the Somalogic platform, and 140 remained for analysis after filtering out low-quality targets on both platforms.\nA […] was generated to identify 17% as the optimal reduction in CXCL13 levels to maximize sensitivity and specificity of this indicator (FIGS. 7 & 14). Specifically, if a patient has a 17% or greater reduction in CXCL13 levels, then the patient is highly likely to respond (FIGS. 15-16, Table 4). The proteins from patients in the discovery cohort described supra were quantified using a relative quantification while the protein quantification in the validation described in Table 4 utilized absolute quantification."}, "CXCL13 [2]": {"test_system": "CXCL13", "assay": "Serum proteomics (SomaLogic SOMAscan) during siltuximab therapy, phase II study", "format": "in vivo, human", "method": "Methods. Clinical data and serum samples were collected as part of NCT01024036. We measured serum protein analytes in the 52 subjects who were treated with anti-IL6 therapy, as well as the 26 patients in the control arm, at day 1, day 8, and day 64 of therapy (infusions administered every 21 days). Serum samples from 44 healthy donors were also analyzed. Of the 1,305 analytes measured using SomaLogic SOMAscan, 1,178 passed QC and were included in analyses. Each analyte was log 2 transformed and capped at the 2.5th and 97.5th percentiles. Response to anti-IL6 therapy was determined by independent review in NCT01024036. Data processing was performed using the Medidata Rave Omics machine learning platform and R v3.4.4.\nLinear mixed effects models were used to detect whether kinetic changes in protein expression were associated with anti-IL6 response. Upon running the full model with the selected covariates, the p-values of the interaction between time point and response were used to test for differences between responders and nonresponders.\nA separate model was fitted using each protein, and False Discovery Rates (FDR) were estimated by the Benjamini-Hochberg method with alpha <0.05."}, "iMCD patients [3]": {"test_system": "iMCD patients", "details": "cited from earlier work"}, "iMCD patients [4]": {"test_system": "iMCD patients", "assay": "Siltuximab phase II study (NCT01024036): durable symptomatic and tumor response criteria", "format": "in vivo, human", "quoted_text": "Clinical and laboratory data were collected at the time of sample draw for iMCD patients. To assess disease activity, we adapted a previously published disease activity score using C-reactive protein, hemoglobin, and albumin."}, "CD19+CD27-IgD+B cells": {"test_system": "CD19+CD27-IgD+B cells", "assay": "In vitro treatment of flow-sorted iMCD patient B cells, RNA sequencing and geneset enrichment analysis of Hallmark pathways", "format": "cell-based, human", "details": "serum plus rhCXCL13 compared to serum only", "method": "An in vitro experiment was performed that included flow sorting CD19+CD27-IgD+B cells from peripheral blood mononuclear cells (PBMCs) derived from an iMCD patient and treating the CD19+CD27-IgD+B cells with either (A) serum only, (B) serum plus recombinant human CXCL13 (rhCXCL13) to assess the effects of CXCL13 on iMCD patient B cells, or (C) serum, rhCXCL13, and anti-CXCL13 (anti-CXCL13) antibody to assess the effects of this blocking antibody. Each of these samples had geneset enrichment analysis performed of the Hallmark pathways on RNA sequencing data."}, "[5]": {"details": "Non-Responders (N = 13), Day 43"}}, "data": [{"molecule": "C=CC[C@@H]1/C=C(\\C)C[C@H](C)C[C@H](OC)[C@H]2O[C@@](O)(C(=O)C(=O)N3CCCC[C@H]3C(=O)O[C@H](/C(C)=C/[C@@H]3CC[C@@H](O)[C@H](OC)C3)[C@H](C)[C@@H](O)CC1=O)[C@H](C)C[C@@H]2OC", "note": "[tacrolimus]", "values": [{"measurement": "reported activity in iMCD", "setting": "iMCD", "value": "potential activity"}]}, {"molecule": "siltuximab", "values": [{"measurement": "CXCL13, Median (IQR)", "setting": "CXCL13 [1]; Non-Responders (N = 13), Day 22/29, baseline 155 (79, 293)", "value": "249 (73.1, 466) pg/ml"}, {"measurement": "CXCL13, Mean (SD)", "setting": "CXCL13 [1]; Non-Responders (N = 13), Day 22/29, baseline 234 (240)", "value": "337 (381) pg/ml"}, {"measurement": "CXCL13, Mean (SD)", "setting": "CXCL13 [1]; [5]", "value": "229.1 (190.3) pg/ml"}, {"measurement": "CXCL13, Median (IQR)", "setting": "CXCL13 [1]; [5]", "value": "218 (62, 371) pg/ml"}, {"measurement": "CXCL13, Median (IQR)", "setting": "CXCL13 [1]; Responders (N = 10), Day 22/29, baseline 116 (57, 258)", "value": "41.1 (23.5, 62) pg/ml"}, {"measurement": "CXCL13, Mean (SD)", "setting": "CXCL13 [1]; Responders (N = 10), Day 22/29, baseline 241 (361)", "value": "71.5 (94.5) pg/ml"}, {"measurement": "CXCL13, Mean (SD)", "setting": "CXCL13 [1]; Responders (N = 10), Day 43", "value": "94.8 (70.6) pg/ml"}, {"measurement": "CXCL13, Median (IQR)", "setting": "CXCL13 [1]; Responders (N = 10), Day 43", "value": "94.4 (29.6, 147) pg/ml"}, {"measurement": "CXCL13 levels in non-responders", "setting": "CXCL13 [2]; by day 64", "value": "remained elevated"}, {"measurement": "CXCL13 levels in siltuximab responders", "setting": "CXCL13 [2]; by day 64", "value": "decreased to levels approaching the healthy donor range"}, {"measurement": "9 serum proteins (IgA, BCMA, NPS-PLA2, ART, IL-18 BPa, CD5L, b2-Microglobulin, CXCL13, NRP1) in responders compared to non-responders", "setting": "CXCL13 [2]; day 8, seven days after first siltuximab administration", "value": "significantly decreased"}, {"measurement": "patients who met response criteria", "setting": "iMCD patients [3]; Phase II study NCT01024036, assessed after a minimum of 48 weeks", "value": "one-third"}, {"measurement": "iMCD patients who did not meet primary response criteria", "setting": "iMCD patients [3]; siltuximab phase II registrational study", "value": 66, "unit": "%"}, {"measurement": "patients with lymph node response by Cheson criteria who also achieved durable symptomatic response", "setting": "iMCD patients [4]", "value": "18 of 20"}]}, {"molecule": "rhCXCL13: recombinant human CXCL13 (protein, UniProt O43927 23-109, looked up) C-X-C motif chemokine 13: VLEVYYTSLRCRCVQESSVFIPRRFIDRIQILPRGNGCPRKEIIVWKKNKSIVCVDPQAEWIQRMMEVLRKRSSSTLPVPVFKRKIP", "values": [{"measurement": "pathways previously found up-regulated in iMCD (IL6-JAK-STAT3, mTORC1, Interferon alpha response, interferon gamma response, complement, TNFα signaling via NFKb)", "setting": "CD19+CD27-IgD+B cells", "value": "up-regulated"}]}]}
